In brackets after ≈: the same amount, converted by molar mass.
Tests used:
K562 [1] = experiment: Cytotoxicity against human doxorubicin-resistant K562 cells after 6 hrs by MTT assay; format: functional, cell-based; settings: K562, 6 h
K562 [2] = experiment: Cytotoxicity against human K562 cells after 6 hrs by MTT assay; format: functional, cell-based; settings: K562, 6 h
KB = experiment: Cytotoxicity against human KB cells after 48 hrs by MTT assay
MCF7 = experiment: Cytotoxicity against human MCF7 cells after 48 hrs by MTT assay; settings: MCF7, 48 h
[3] = Cytotoxicity against human KB-C2 cells after 48 hrs by MTT assay; settings: KB-C2, 48 h
[4] = Cytotoxicity against human colchicine-resistant KB-C2 cells after 48 hrs by MTT assay; settings: KB-C2, 48 h

| SMILES | IC50 (K562 [1]) [µg/mL] | IC50 (K562 [2]) [µg/mL] | IC50 (KB) [µg/mL] | IC50 (MCF7) [µg/mL] | IC50 [3] [µg/mL] | IC50 [4] [µg/mL] |
| --- | --- | --- | --- | --- | --- | --- |
| C=C[C@@H]1CC[C@@H]2[C@]3(CC[C@]4(C)[C@@H]([C@H](C)[C@H]5CC=C(C)C(=O)O5)CC[C@@]24C)C[C@]13CCC(=O)O [SINOCALYCANCHINENSIN D] | 7 (≈ 15.4 µM) | 16.7 (≈ 36.7 µM) | 31.7 (≈ 69.7 µM) | 39.2 (≈ 86.2 µM) | 26.4 (≈ 58.1 µM) | 25.6 (≈ 56.3 µM) |
| C/C(=C\CC[C@@H](C)[C@H]1CC[C@@]2(C)[C@@H]3CC[C@H]4[C@H](C)C(=O)CC[C@@]45C[C@@]35CC[C@]12C)C(=O)O [SINOCALYCANCHINENSIN H] | 19.4 (≈ 44 µM) | 14.8 (≈ 33.6 µM) | 18.6 (≈ 42.2 µM) | 18.6 (≈ 42.2 µM) | 18.8 (≈ 42.7 µM) | 17.2 (≈ 39 µM) |
| COc1cccc2c1C(=O)c1c(O)c3c(c(O)c1C2=O)C[C@@](O)(C(C)=O)C[C@@H]3O[C@H]1C[C@H](N)[C@H](O)[C@H](C)O1 [DAUNORUBICIN] | 8.5 (≈ 16.1 µM) | 1.49 (≈ 2.82 µM) | 0.45 (≈ 0.853 µM) | 0.033 (≈ 0.0626 µM) | 7.9 (≈ 15 µM) | 11.6 (≈ 22 µM) |
| COC(=O)[C@@H](C)[C@@H]1CC[C@@H]2[C@]3(CC[C@]4(C)[C@@H]([C@H](C)CC/C=C(/C)C(=O)O)CC[C@@]24C)C[C@]13CCOC(C)=O [SINOCALYCANCHINENSIN F] | 19.5 (≈ 36.7 µM) | 13.2 (≈ 24.9 µM) | 16.6 (≈ 31.3 µM) | 33.8 (≈ 63.7 µM) | 21.7 (≈ 40.9 µM) | 17.5 (≈ 33 µM) |
| C=C[C@@H]1CC[C@@H]2[C@]3(CC[C@]4(C)[C@@H]([C@H](C)CC/C=C(/C)C(=O)O)CC[C@@]24C)C[C@]13CCC(=O)OC [SINOCALYCANCHINENSIN B] | 17.6 (≈ 37.4 µM) | 16.5 (≈ 35.1 µM) | 20.9 (≈ 44.4 µM) | 35.7 (≈ 75.8 µM) | 22.2 (≈ 47.2 µM) | 18.9 (≈ 40.2 µM) |
| C=C[C@@H]1CC[C@@H]2[C@]3(CC[C@]4(C)[C@@H]([C@H](C)CC/C=C(/C)C(=O)O)CC[C@@]24C)C[C@]13CCC(=O)OC/C=C(\C)CCC[C@H](C)CCC[C@H](C)CCCC(C)C [SINOCALYCANCHINENSIN C] | – | > 100 | > 100 | > 100 | > 100 | > 100 |
| C=C[C@@H]1CC[C@@H]2[C@]3(CC[C@]4(C)[C@@H]([C@H](C)[C@H]5CC=C(C)C(=O)O5)CC[C@@]24C)C[C@]13CCC(=O)OC [SINOCALYCANCHINENSIN E] | 20.5 (≈ 43.7 µM) | 22.4 (≈ 47.8 µM) | 62.2 (≈ 133 µM) | > 100 | 49.2 (≈ 105 µM) | 1.51 (≈ 3.22 µM) |
| C=C[C@@H]1CC[C@@H]2[C@]3(CC[C@]4(C)[C@@H]([C@H](C)CC/C=C(/C)C(=O)O)CC[C@@]24C)C[C@]13CCC(=O)O [SINOCALYCANCHINENSIN A] | 38.9 (≈ 85.2 µM) | 29.9 (≈ 65.5 µM) | 30.7 (≈ 67.2 µM) | 61.6 (≈ 135 µM) | 30.4 (≈ 66.6 µM) | 33.4 (≈ 73.1 µM) |
| C/C(=C/CC[C@@H](C)[C@H]1CC[C@@]2(C)[C@@H]3CC[C@H]4[C@H](C)C(=O)CC[C@@]45C[C@@]35CC[C@]12C)C(=O)O [SINOCALYCANCHINENSIN G] | 7.3 (≈ 16.6 µM) | 14.8 (≈ 33.6 µM) | 19.9 (≈ 45.2 µM) | 23.7 (≈ 53.8 µM) | 21.6 (≈ 49 µM) | 21.4 (≈ 48.6 µM) |

Source: ChEMBL document CHEMBL1773024, “New 29-nor-cycloartanes with a 3,4-seco- and a novel 2,3-seco-structure from the leaves of Sinocalycanthus chinensis” (Bioorg Med Chem, 2011)
